Reference: US20080063679A1, “NANOCOMPOSITES WITH RESIDUAL BIOCIDAL AND BIOSTATIC PROPERTIES” (Quartek Corporation, priority 2006, published 2008)
Converted amounts (≈) assume the structure as drawn.

Tests used:
[1] = Minimum inhibitory concentration (MIC), comparison of biocidal nanocomposites and existing decontaminants; assay type: cell-based; conditions: Table 1
Excerpt: (§1) Current antimicrobials have a short life with no residual effect. They lose there effectiveness in high protein environment. Certain bacteria developed resistance. They are toxic or cause irritations. Some are highly corrosive.

G+ & G− = assay: Bactericidal effectiveness, comparison table; assay type: cell-based; conditions: Table 1
Excerpt: as §1

spores = assay: Sporicidal effectiveness, comparison table; assay type: cell-based; conditions: Table 1
Excerpt: as §1

fungi = assay: Fungicidal effectiveness, comparison table; assay type: cell-based; conditions: Table 1
Excerpt: as §1

[2] = Excerpt: as §1

For OCl [Hypochlorite], the “Minimum inhibitory concentration (MIC)” value [1] was 150 µg/mL (≈ 2860 µM), the “Effectiveness Bactericidal (G+ & G−)” value (G+ & G−) was “very good” and the “Effectiveness Sporicidal” value (spores) was “no/fair”. For the same compound, the “Effectiveness Fungicidal” value (fungi) was “good”, the Non-corrosive [2] was “no” and the Contact time ([2]; Table 1) was 1 to 30 min. The “Effective in hard water” value ([2]; Table 1) was “poor”, the Effective in organics ([2]; Table 1) was “poor” and the Effective in soap ([2]; Table 1) was “yes”. The Residual activity ([2]; Table 1) was “poor”.
